Each block holds one molecule with its values, some of them ahead of it. Active and inactive are the calls of the source. The calls are words filed in the database; no cut-off is given here. Where a SMILES comes first, the peptide text is derived from it. Bridges are numbered along the chain shown (N, C = ends). [ ]: non-standard residue; d: D form. 1Nal = N[C@@H](Cc1cccc2ccccc12)C(=O)O; 2Nal = N[C@@H](Cc1ccc2ccccc2c1)C(=O)O
Legend:
Aorta = assay: Vasoconstriction activity in spontaneously […] rat thoracic aorta at 30 nM; type: functional
Urotensin-2 receptor [1] = molecular target: T1, Urotensin-2 receptor (Rattus norvegicus, UniProt P49684); assay: Agonist activity at rat urotensin 2 receptor expressed in CHO cells assessed as calcium mobilization by FLIPR; type: functional, cell-based
T1 sequence (P49684 whole entry): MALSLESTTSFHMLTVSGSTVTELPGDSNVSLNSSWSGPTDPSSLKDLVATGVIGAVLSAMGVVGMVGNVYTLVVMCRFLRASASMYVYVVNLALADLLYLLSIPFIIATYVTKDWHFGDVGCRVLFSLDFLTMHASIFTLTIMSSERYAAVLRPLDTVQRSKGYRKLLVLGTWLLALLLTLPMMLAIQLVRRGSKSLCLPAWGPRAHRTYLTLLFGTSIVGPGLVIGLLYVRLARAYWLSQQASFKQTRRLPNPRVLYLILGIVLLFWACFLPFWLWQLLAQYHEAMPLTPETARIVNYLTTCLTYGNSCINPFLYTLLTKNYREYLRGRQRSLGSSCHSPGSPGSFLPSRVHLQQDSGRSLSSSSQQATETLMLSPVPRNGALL

Urotensin-2 receptor [2] = molecular target: T1, Urotensin-2 receptor; assay: Displacement of [125I]U2 from rat urotensin 2 receptor expressed in CHO cells; type: cell-based
[3] = molecular target: T2, Urotensin-2 receptor (Rattus norvegicus) (UniProt P49684); assay: Antagonist activity at rat urotensin 2 receptor expressed in CHO cells assessed as calcium mobilization at 300 nM by FLIPR; type: functional, cell-based
T2 sequence (whole entry): T1 sequence (P49684 whole entry)

[4] = molecular target: T2, Urotensin-2 receptor (Rattus norvegicus); assay: Agonist activity at rat urotensin 2 receptor expressed in CHO cells assessed as calcium mobilization at 500 nM by FLIPR; type: functional, cell-based
[5] = molecular target: T2, Urotensin-2 receptor (Rattus norvegicus); assay: Agonist activity at rat urotensin 2 receptor expressed in CHO cells assessed as calcium mobilization at 1000 nM by FLIPR; type: functional, cell-based
[6] = molecular target: T2, Urotensin-2 receptor (Rattus norvegicus); assay: Antagonist activity at rat urotensin 2 receptor expressed in CHO cells assessed as calcium mobilization at 10000 nM by FLIPR; type: functional, cell-based
Urotensin-2 receptor [7] = molecular target: T3, Urotensin-2 receptor (Homo sapiens, UniProt Q9UKP6); assay: Agonist activity at human urotensin 2 expressed in CHO cells by FLIPR; type: functional, cell-based
T3 sequence (Q9UKP6 whole entry): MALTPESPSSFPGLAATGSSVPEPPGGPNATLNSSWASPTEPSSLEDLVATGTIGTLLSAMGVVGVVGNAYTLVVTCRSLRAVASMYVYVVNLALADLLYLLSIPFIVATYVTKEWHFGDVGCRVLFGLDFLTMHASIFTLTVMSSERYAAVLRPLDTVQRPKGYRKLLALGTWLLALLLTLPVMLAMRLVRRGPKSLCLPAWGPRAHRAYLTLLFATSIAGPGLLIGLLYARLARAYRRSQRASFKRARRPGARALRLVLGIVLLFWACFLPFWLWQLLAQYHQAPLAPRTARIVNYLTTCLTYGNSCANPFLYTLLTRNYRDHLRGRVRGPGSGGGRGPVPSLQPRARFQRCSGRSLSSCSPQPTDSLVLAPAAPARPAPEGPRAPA

[8] = Oral bioavailability in rat; type: ADME, organism-based; details: in vivo
[9] = molecular target: T2, Urotensin-2 receptor (Rattus norvegicus); assay: Antagonist activity at rat urotensin 2 receptor expressed in CHO cells assessed as calcium mobilization at 100 nM by FLIPR; type: functional, cell-based
Rattus norvegicus = assay: Decrease in urotensin-2-induced temperature of ear pinna in rat ear-flush model at 10 ug/ml, iv for 15 mins; type: functional, organism-based

Molecule: CC(=O)N[C@H]1CSSC[C@@H](C(N)=O)NC(=O)[C@H](Cc2ccc3ccccc3c2)NC(=O)[C@H](CCCCN)NC(=O)[C@H](Cc2c[nH]c3ccccc23)NC(=O)[C@H](Cc2ccccc2)NC1=O (Ac-CFWK[2Nal]C-NH2; disulfide 1-6)
Activity (Aorta): 43%

EC50 (Urotensin-2 receptor [1]): 0.34 nM
Ki (Urotensin-2 receptor [2]): 0.02 nM
Molecule: CC(C)[C@H](NC(=O)[C@@H]1CSSC[C@H](NC(=O)[C@H](CC(=O)O)NC(=O)[C@H](C)NC(=O)[C@@H](NC(=O)CNC(=O)[C@H](C)N)[C@@H](C)O)C(=O)N[C@@H](Cc2ccccc2)C(=O)N[C@@H](Cc2c[nH]c3ccccc23)C(=O)N[C@@H](CCCCN)C(=O)N[C@@H](Cc2ccc3ccccc3c2)C(=O)N1)C(=O)O (H-AGTADCFWK[2Nal]CV-OH; disulfide 6-11)

Activity [3]: inactive
Activity [4]: 57%
Ki (Urotensin-2 receptor [2]; cho): < 10000 nM
Molecule: CC(=O)N[C@@H](Cc1ccccc1)C(=O)N[C@@H](Cc1c[nH]c2ccccc12)C(=O)N[C@@H](CCCCN)C(=O)N[C@@H](Cc1ccc(O)cc1)C(N)=O (Ac-FWKY-NH2)

Activity [3]: inactive
Ki (Urotensin-2 receptor [2]; cho): < 10000 nM
Molecule: CC(=O)N[C@H]1CSSC[C@@H](C(N)=O)NC(=O)[C@H](Cc2ccc(O)cc2)NC(=O)[C@@H](CCCCN)NC(=O)[C@H](Cc2c[nH]c3ccccc23)NC(=O)[C@H](Cc2ccccc2)NC1=O

EC50 (Urotensin-2 receptor [1]): 1.6 nM
Ki (Urotensin-2 receptor [2]): 15 nM
Molecule: CC(=O)N[C@H]1CSSC[C@@H](C(N)=O)NC(=O)[C@H](Cc2ccc(O)cc2)NC(=O)[C@H](CCCCN)NC(=O)[C@H](Cc2c[nH]c3ccccc23)NC(=O)[C@H](Cc2ccccc2)NC1=O

Activity [5]: 50%
Activity [3]: inactive
EC50 (Urotensin-2 receptor [1]): < 500 nM
Ki (Urotensin-2 receptor [2]; cho): < 10000 nM
Molecule: Ac-SFWKYS-NH2

Activity [6]: inactive
Molecule: CC(C)[C@H](NC(=O)[C@@H]1CSSC[C@H](NC(=O)[C@H](CC(N)=O)NC(=O)[C@H](C)N)C(=O)N[C@@H](Cc2ccccc2)C(=O)N[C@@H](C)C(=O)N[C@@H](CCCCN)C(=O)N[C@@H](Cc2ccc(O)cc2)C(=O)N1)C(=O)O (H-ANCFAKYCV-OH; disulfide 3-8)

Ki (Urotensin-2 receptor [7]): 390 nM
bioavailability [8]: 35%
Ki (Urotensin-2 receptor [1]): 6.3 nM
Molecule: CCN1CCN(c2cccc3c2[C@H]2CCC[C@H](c4ccc(OC)c(OC)c4)N2C3=O)CC1

EC50 (Urotensin-2 receptor [1]): < 500 nM
Ki (Urotensin-2 receptor [2]; cho): < 10000 nM
Molecule: CC(=O)N[C@@H](Cc1c[nH]c2ccccc12)C(=O)N[C@@H](CCCCN)C(=O)N[C@@H](Cc1ccc(O)cc1)C(N)=O (Ac-Trp-Lys-Tyr-NH2)

inhibition [9]: 74%
bioavailability [8]: 10%
Molecule: CCN1CCN(c2cccc3c2CN([C@@H](CCCNS(=O)(=O)c2cccs2)c2ccc(OC)c(OC)c2)C3=O)CC1
Activity (Rattus norvegicus): Active

inhibition [9]: 97%
Molecule: COc1cc(Br)c(S(=O)(=O)Nc2ccc(C(F)(F)F)c(O[C@@H]3CCN(C)C3)c2)cc1OC

Activity [5]: 50%
Ki (Urotensin-2 receptor [2]): > 10000 nM
Molecule: CC(=O)N[C@H]1CSSC[C@@H](C(N)=O)NC(=O)[C@H](C)NC(=O)[C@H](CCCCN)NC(=O)[C@H](Cc2c[nH]c3ccccc23)NC(=O)[C@H](Cc2ccccc2)NC1=O (Ac-CFWKAC-NH2; disulfide 1-6)
Activity (Aorta): 0%

EC50 (Urotensin-2 receptor [1]): 1.5 nM
Ki (Urotensin-2 receptor [2]): 4.1 nM
Molecule: CC(=O)N[C@H]1CSSC[C@@H](C(N)=O)NC(=O)[C@H](Cc2cccc3ccccc23)NC(=O)[C@H](CCCCN)NC(=O)[C@H](Cc2c[nH]c3ccccc23)NC(=O)[C@H](Cc2ccccc2)NC1=O (Ac-CFWK[1Nal]C-NH2; disulfide 1-6)

EC50 (Urotensin-2 receptor [1]): 26 nM
Ki (Urotensin-2 receptor [2]): 610 nM
Molecule: CC(=O)N[C@H]1CSSC[C@@H](C(N)=O)NC(=O)[C@H](Cc2ccc(O)cc2)NC(=O)[C@H](CCCCN)NC(=O)[C@@H](Cc2c[nH]c3ccccc23)NC(=O)[C@H](Cc2ccccc2)NC1=O

EC50 (Urotensin-2 receptor [1]): 0.17 nM
Ki (Urotensin-2 receptor [2]): 0.19 nM
Molecule: CC(C)[C@H](NC(=O)[C@@H]1CSSC[C@H](NC(=O)[C@H](CC(=O)O)NC(=O)[C@H](C)NC(=O)[C@@H](NC(=O)CNC(=O)[C@H](C)N)[C@@H](C)O)C(=O)N[C@@H](Cc2ccccc2)C(=O)N[C@@H](Cc2c[nH]c3ccccc23)C(=O)N[C@@H](CCCCN)C(=O)N[C@@H](Cc2ccc(O)cc2)C(=O)N1)C(=O)O (H-AGTADCFWKYCV-OH; disulfide 6-11)
Activity (Aorta): 91%

Ki (Urotensin-2 receptor [7]): 250 nM
Ki (Urotensin-2 receptor [2]): 3.2 nM
Molecule: CN(C)CCCOc1ccc(CN2CC[C@H](NC(=O)c3ccc(Cl)c(Cl)c3)C2)cc1

Activity [3]: inactive
Ki (Urotensin-2 receptor [2]; cho): < 10000 nM
Molecule: CC(=O)N[C@H]1CSSC[C@@H](C(N)=O)NC(=O)[C@H](Cc2ccc(O)cc2)NC(=O)[C@H](CCCCN)NC(=O)[C@H](Cc2c[nH]c3ccccc23)NC(=O)[C@@H](Cc2ccccc2)NC1=O

EC50 (Urotensin-2 receptor [1]): 2.1 nM
Ki (Urotensin-2 receptor [2]): 17 nM
Molecule: CC(=O)N[C@H]1CSSC[C@@H](C(N)=O)NC(=O)[C@H](Cc2ccccc2)NC(=O)[C@H](CCCCN)NC(=O)[C@H](Cc2c[nH]c3ccccc23)NC(=O)[C@H](Cc2ccccc2)NC1=O (Ac-CFWKFC-NH2; disulfide 1-6)
Activity (Aorta): 11%

Activity [6]: inactive
Activity [5]: 67%
Molecule: CC(C)[C@H](NC(=O)[C@@H]1CSSC[C@H](NC(=O)[C@H](CC(N)=O)NC(=O)[C@H](C)N)C(=O)N[C@@H](Cc2ccccc2)C(=O)N[C@@H](Cc2c[nH]c3ccccc23)C(=O)N[C@@H](CCCCN)C(=O)N[C@@H](C)C(=O)N1)C(=O)O (H-ANCFWKACV-OH; disulfide 3-8)

EC50 (Urotensin-2 receptor [1]): 31 nM
Ki (Urotensin-2 receptor [2]): 200 nM
Molecule: CC(=O)N[C@H]1CSSC[C@@H](C(N)=O)NC(=O)[C@H](Cc2ccc(O)cc2)NC(=O)[C@H](CCCCN)NC(=O)[C@H](Cc2ccc3ccccc3c2)NC(=O)[C@H](Cc2ccccc2)NC1=O (Ac-CF[2Nal]KYC-NH2; disulfide 1-6)

EC50 (Urotensin-2 receptor [1]): 37 nM
Ki (Urotensin-2 receptor [2]): 1100 nM
Molecule: CC(=O)N[C@H]1CSSC[C@@H](C(N)=O)NC(=O)[C@@H](Cc2ccc(O)cc2)NC(=O)[C@H](CCCCN)NC(=O)[C@H](Cc2c[nH]c3ccccc23)NC(=O)[C@H](Cc2ccccc2)NC1=O

Activity [6]: inactive
Molecule: CC(C)[C@H](NC(=O)[C@@H]1CSSC[C@H](NC(=O)[C@H](CC(N)=O)NC(=O)[C@H](C)N)C(=O)N[C@@H](Cc2ccccc2)C(=O)N[C@@H](Cc2c[nH]c3ccccc23)C(=O)N[C@@H](C)C(=O)N[C@@H](Cc2ccc(O)cc2)C(=O)N1)C(=O)O (H-ANCFWAYCV-OH; disulfide 3-8)

Reference: ChEMBL document CHEMBL1165847, “Urotensin-II receptor modulators as potential drugs” (J Med Chem, 2010)
